Tests used:
Type in all cases: cell-based, human
[1] = tested on: CD34+ fibrocytes; assay: MHC II, CD80, CD86, PD-L1 expression in cultured fibrocytes (RT-qPCR, flow cytometry)
Description: Fibrocyte and T cell isolation and cultivation. Peripheral blood mononuclear cells (PBMCs) were obtained from the venous circulation of clinic patients with GD, TAO or from healthy donors after obtaining informed consent. PBMCs were also obtained from Red Cross donor plasmapheresis filters. They were isolated by Ficoll-Histopaque (Sigma-Aldrich, St. Louis, MO) density gradient centrifugation. Fibrocytes were cultivated as described (Bucala, R, et al., (1994) Mol Med 1, 71-81, incorporated herein by reference in its entirety) except that culture substrata remained uncoated with fibronectin, as previously described (Douglas, R. S., et al. (2010) The Journal of clinical endocrinology and metabolism 95, 430-438). Isolated PBMCs (1×10^6-1×107) were inoculated in six-well plates covered with DMEM containing 10% FBS and incubated in 10-14 days. Adherent monolayers (<5% of the starting population) were washed with PBS and detached using accutase (Millipore) treatment, or mechanical scraping following accutase treatment. Culture purity was routinely confirmed by FACS analysis to be >90% fibrocytes by confirming the CD31^−CD45^+CD34^+CXCR4^+Col I^+TSFR^high phenotype.
Invariably, a small population of tightly adherent T cells were found in the fibrocyte cultures, consistent with the previous findings. Culture viability was routinely verified to be >90%. CD4^+ T cells were enriched using the CD4 isolation cocktail (Cat #0.130-096-533, Miltenyi Biotec, San Diego, CA) followed by negative selection using a magnetic column (Cat #0.130-042-401) according to manufacturer's protocol. Fibrocytes and isolated T cells were cultured and remained untreated or were incubated with human IgG isotype control (5 μg/ml) or teprotumumab (50 μg/mL) for 7 to 9 days. Single cell suspensions were stained with anti-human CD4, CD3, CD34, MHC-2, CD80, CD86, and PD-L1 (BD Biosciences) for 30 min, rinsed and fixed with CytoPerm/CytoFix (BD). They were then stained with anti-human INFγ and IL-17A for 20 min, rinsed, and subjected to the flow cytometry analysis. Gated CD34^+CXCR4^+ fibrocytes and CD4^+CD3^+ T cells were analyzed using quadrant settings based on negative isotype staining.
In vitro studies of CD34^+ fibrocytes and T cells PBMC and GD-OF monolayers were treated in vitro with human IgG isotype control (5 μg/ml), teprotumumab (50 μg/mL), H7 (5 μg/mL), linsitinib (1 μM), bTSH (5 mIU/mL), M22 (1 μg/mL), or IGF-1 (10 nM) for the intervals indicted in the figure legends in a 37° C., 5% CO2, humidified incubator until confluent. Brefeldin A (0.66 μl/ml), (Golgi Stop™, BD Biosciences), phorbol 12-myristate 13-acetate (PMA) (50 ng/ml) and ionomycin (1 μg/mL) were added for 5 h. Cells were rinsed with flow cytometry buffer (1×PBS, 0.5% BSA, 0.1% sodium azide) and stained with the relevant monoclonal antibodies.
(§1) Real-time PCR Confluent fibrocyte and GD-OF cultures were incubated with bTSH (5 mIU/mL), teprotumumab (50 μg/mL) or linsitinib (1 μM) for the time intervals indicated, washed with PBS and RNA was extracted with the Aurum Total RNA Mini Kit (cat. #732-6820, Bio-Rad, Hercules, CA). Cellular RNA (2 μg) was reverse transcribed using QuantiTect Reverse Transcription kit (cat. #205314, Qiagen (Germantown, MD) and real-time PCR was performed using an Applied Biosystems instrument with QuantiTect SYBR Green PCR kit (cat. no. 204143; Qiagen, Frederick, MD). Primer sequences were as follows.

[2] = tested on: fibrocytes; assay: IL-23p19 and IL-12p35 mRNA expression, real-time PCR; conditions: teprotumumab 50 μg/ml or linsitinib 1 μM, 7-9 d
Procedure: (§2) FIGS. 10A-10F are graphs showing the divergent effect of teprotumumab on bTSH induced IL-23p19 and IL-12p35 expression on fibrocytes and GD-OF. Rinsed fibrocyte and GD-OF monolayers were incubated with or without 50 μg/ml teprotumumab (FIGS. 10A and 10B) or 1 μM linsitinib (FIGS. 10C and 10D) and human Isotype IgG for 7-9 d, and bTSH (5 mIU/mL) was added for 6 h. Harvested RNA was reverse transcribed and isolated cDNA was subjected to quantitative real-time PCR for IL-23p19 and IL-12p35 mRNA levels. Values were normalized to their respective GAPDH levels and are expressed as the mean±SD of three independent determinations. Experiments were repeated three times. FIGS. 10E and 10F are graphs showing the levels of IL-23 protein when rinsed fibrocyte and GD-OF monolayers were incubated with or without 50 μg/ml teprotumumab. **, p<0.01; ***. P<0.001.
as §1

[3] = tested on: GD-OF; assay: as above; conditions: teprotumumab 50 μg/ml or linsitinib 1 μM, 7-9 d
Procedure: as §2
FIGS. 15A-15C are dose-response curves of teprotumumab effects on IL-6 expression/induction by bTSH (FIG. 15A); HAS2 expression/induction by bTSH (FIG. 15B); IL-12p35 expression/induction by bTSH (FIG. 15C). Following indicated treatments, cellular RNA was harvest from rinsed GD-OF cell layers, reversed transcribed and subjected to real-time PCR. Values were normalized to their respective GAPDH levels.
Graves' disease-orbital fibroblast (GD-OF) preparation and cultivtion GD-OF were isolated from orbital adipose/connective tissues removed during surgical orbital decompression surgery, as described ((Smith, T. J., et al., (2002) The Journal of clinical endocrinology and metabolism 87, 385-392). While the fraction of CD34^+ OF comprising GD-OF strains vary somewhat, the ratios of CD34^+/CD34^− OF are usually 50:50 in the early passages utilized in these studies (passages 2-11). Pure CD34^+ OF and CD34^− OF subsets were generated by staining for 30 m at 4° C. with fluorescein isothiocyanate-conjugated […] CD34 or its isotype control followed by cytometric cell sorting using a FACSAria III (BD Biosciences) instrument. Cells were sorted under sterile conditions into either CD34^+ OF, and CD34 OF subsets which were then re-cultured and treated without or with bTSH (5 mU/mL) or the other test compounds, as indicated, for 6 hrs, as indicated.
as §1

[4] = tested on: GD-OF; assay: HAS1 and HAS2 mRNA, real-time PCR; conditions: teprotumumab 50 μg/ml or linsitinib 1 μM, 7-9 d
Procedure: (§3) FIGS. 13A-13B are graphs showing the effect of teprotumumab on bTSH induced hyaluronan (HA) production in GD-OF (FIG. 13A) and fibrocytes (FIG. 13B). GD-OF were treated with or without teprotumumab (50 μg/ml) or human Isotype IgG (5 μg/ml) for 7-9 d and stimulated with bTSH (5 mIU/mL) for graded intervals indicated along the abscissa for 0 to 96h. Media were collected and subjected to HA ELISA. Values were normalized to respective cell layer protein levels and expressed as the mean±SD of three independent determinations. Experiments were repeated three times. FIGS. 13C-13F are graphs showing the divergent pattern of hyaluronan synthase (HAS) isoenzyme induction by bTSH in fibrocytes versus GD-OF and effects of teprotumumab (FIGS. 13C and 13D) and linsitinib (FIGS. 13E and 13F). Confluent monolayers of GD-OF and fibrocytes remained untreated or received teprotumumab (50 μg/ml) or linsitinib (1 μM) and human Isotype IgG for 7-9 d. Some cultures were treated with bTSH (5 mIU/mL) for 6h. Cellular RNA was harvested mRNA was reverse transcribed, and cDNA subjected to quantitative real-time PCR for HAS1 and HAS2. Values were normalized to their respective GAPDH levels and are expressed as the mean±SD of three independent determinations. Experiments were repeated three times. *, P<0.05; **, p<0.01; ***. P<0.001.
as §1

[5] = tested on: fibrocytes; assay: HAS1 and HAS2 mRNA, real-time PCR; conditions: teprotumumab 50 μg/ml or linsitinib 1 μM, 7-9 d
Procedure: as §3, §1

## COc1ccc(C2Nc3ccccc3C(=O)N2Cc2ccco2)cc1COc1c(C)cc(NC(C)=O)cc1C (stereo not drawn) [ML224]
[1]; 9 d, single agents and in combination
  effect on MHC II, CD80, CD86, PD-L1 expression, teprotumumab compared with TSHR inhibitor ML224: effective

## rhIGF-1: Recombinant Human IGF-1 (R & D systems)
[1]; M22 1 μg/mL (peak at 6 d), IGF-1 10 nM, compared with bTSH
  induction of MHC II, CD80, CD86, PD-L1 surface proteins by the agent itself: considerably less robust

## C[C@]1(O)C[C@@H](c2nc(-c3ccc4ccc(-c5ccccc5)nc4c3)c3c(N)nccn32)C1 [linsitinib]
[1]; bTSH-treated fibrocytes
  induction of MHC II, CD80, CD86, PD-L1 surface proteins: blocked
[1]; teprotumumab 50 μg/mL, 1H7 5 μg/mL, linsitinib 1 μM
  induction of MHC II, CD80, CD86, PD-L1 mRNA by bTSH and M22: blocked
[2]
  IL-12p35 expression, basal and induction by bTSH: increasing
  IL-23p19 expression, basal and induction by bTSH: decreasing
[3]
  IL-12p35 expression, basal and induction by bTSH: increasing
  IL-23p19 expression, basal and induction by bTSH: decreasing
[4]
  HAS2 expression, single agent or in combination with bTSH: nearly identical
  basal and bTSH-provoked expression of HAS1: nearly identical
[5]
  HAS2 expression, single agent or in combination with bTSH: nearly identical
  basal and bTSH-provoked expression of HAS1: nearly identical

— US20250034264A1, “REGULATING T CELL IMMUNE RESPONSE THROUGH IGF-I RECEPTOR (IGF-1R)” (The Regents of the University of Michigan, priority 2021, published 2025)
